Assay results as given in patent publication US20220168295A1, “RIMEGEPANT FOR CGRP RELATED DISORDERS” (Biohaven Pharmaceutical Ireland DAC, priority 2018, published 2022).

Assays:
[1] = tested on: subjects with Acute Migraines; assay: Study 303 (BHV3000-303) Phase 3 placebo-controlled trial, rimegepant 75 mg ODT, acute treatment of migraine: efficacy and safety; type: in vivo, human
Description: Clinical Trial—BHV3000-303: Phase 3: Double-Blind, Randomized, Placebo-Controlled, Safety and Efficacy Trial of BHV-3000 (Rimegepant) Orally Discintegrating Tablet (ODT) for the Acute Treatment of Migraine (ClinicalTrials.gov Identifier: NCT03461757) A phase 3 clinical study was conducted with 1812 participants, as follows. […] Pain freedom of rimegepant compared with placebo in the acute treatment of migraine will be measured using the number of evaluable subjects that report no pain at 2 hours post-dose. […] Pain will be measured on a 4 point Likert scale (0=none, 1=mild, 2=moderate, 3=severe) 2. Freedom from the most bothersome symptom (MBS) of rimegepant compared with placebo will be measured using the number of evaluable subjects that report the absence of their MBS at 2 hours post-dose. […] The MBS (nausea, phonophobia or photophobia) will measured using a binary scale (0=absent, 1=present). […] Pain Relief as measured by a 4 point numeric rating scale (None, Mild, Moderate, Severe) 2. […] Sustained Pain Relief as measured by a 4 point numeric rating scale (None, Mild, Moderate, Severe) 4. […] To measure rimegepant compared to placebo on the probability of requiring rescue medication will be assessed using the number of subjects that take rescue medication within […] administration of study medication (BHV3000 or placebo). […]

patients with migraine = assay: Study 201 (BHV3000-201) open label long-term safety study, rimegepant 75 mg oral tablet, acute treatment of migraine; type: in vivo, human; conditions: for >= 20.0% decrease in migraines (headache days) per month, subjects n (%) / >= 25.0% decrease in migraines (headache days) per month, subjects n (%) / >= 30.0% decrease in migraines (headache days) per month, subjects n (%) / >= 35.0% decrease in migraines (headache days) per month, subjects n (%) / >= 40.0% decrease in migraines (headache days) per month, subjects n (%) / >= 45.0% decrease in migraines (headache days) per month, subjects n (%) / >= 50.0% decrease in migraines (headache days) per month, subjects n (%): Study 201, Overall, n 1731
Description: Clinical Trial-BHV3000-201: Open Label Safety Study in Acute Treatment of Migraine (ClinicalTrials.gov Identifier: NCT 03266588) A phase 2/3 clinical study is conducted with about 2000 participants, as follows. The purpose of this study is to evaluate safety and tolerability of BHV3000 (rimegepant). • Study Type: Interventional (Clinical Trial) • Estimated Enrollment: 2000 participants • Intervention Model: Single Group Assignment • Masking: None (Open Label) • Primary Purpose: Treatment • Official Title: A Multicenter, Open Label Long-Term Safety Study of BHV3000 in the Acute Treatment of Migraine • Actual Study Start Date: Aug. 30, 2017 • Estimated Primary Completion Date: July 2019 • Estimated Study Completion Date: July 2019 [table] 1. To assess the safety and tolerability of rimegepant (BHV-3000) by measuring the frequency and severity of adverse events and discontinuations due to adverse events [Time Frame: 52 weeks] Number of subjects with treatment-emergent adverse events as assessed through laboratory tests, ECGs, physical exam findings (safety and tolerability) 1. ALT or […] with total bilirubin >2×ULN [Time Frame: 52 weeks] elevated liver function tests 2. hepatic related adverse events and hepatic related adverse events that lead to discontinuation [Time Frame: 52 weeks] adverse events related to liver

N[C@@H]1c2cccnc2[C@H](OC(=O)N2CCC(n3c(=O)[nH]c4ncccc43)CC2)CC[C@H]1c1cccc(F)c1F [Rimegepant, [(5S,6S,9R)-5-amino-6-(2,3-difluorophenyl)-6,7,8,9-tetrahydro-5H-cyclohepta[b]pyridin-9-yl] 4-(2-oxo-3H-imidazo[4,5-b]pyridin-1-yl)piperidine-1-carboxylate]
Patients with LFTs >3xULN [1]: one
>= 20.0% decrease in migraines (headache days) per month, subjects n (%) (patients with migraine): 683 (39.5%) n (%)
>= 25.0% decrease in migraines (headache days) per month, subjects n (%) (patients with migraine): 602 (34.8%) n (%)
>= 30.0% decrease in migraines (headache days) per month, subjects n (%) (patients with migraine): 523 (30.2%) n (%)
>= 35.0% decrease in migraines (headache days) per month, subjects n (%) (patients with migraine): 442 (25.5%) n (%)
>= 40.0% decrease in migraines (headache days) per month, subjects n (%) (patients with migraine): 362 (20.9%) n (%)
>= 45.0% decrease in migraines (headache days) per month, subjects n (%) (patients with migraine): 287 (16.6%) n (%)
>= 50.0% decrease in migraines (headache days) per month, subjects n (%) (patients with migraine): 226 (13.1%) n (%)
>= 20.0% decrease in migraines (headache days) per month, subjects n (%) (patients with migraine; listed as BHV-3000): 683 (39.5) n (%)
>= 25.0% decrease in migraines (headache days) per month, subjects n (%) (patients with migraine; listed as BHV-3000): 602 (34.8) n (%)
>= 30.0% decrease in migraines (headache days) per month, subjects n (%) (patients with migraine; listed as BHV-3000): 523 (30.2) n (%)
>= 35.0% decrease in migraines (headache days) per month, subjects n (%) (patients with migraine; listed as BHV-3000): 442 (25.5) n (%)
>= 40.0% decrease in migraines (headache days) per month, subjects n (%) (patients with migraine; listed as BHV-3000): 362 (20.9) n (%)
>= 45.0% decrease in migraines (headache days) per month, subjects n (%) (patients with migraine; listed as BHV-3000): 287 (16.6) n (%)
>= 50.0% decrease in migraines (headache days) per month, subjects n (%) (patients with migraine; listed as BHV-3000): 226 (13.1) n (%)
Incidence of serum ALT or AST >3xULN (patients with migraine; Study 201 interim analysis, 75 mg up to once daily, long-term): 1.0%
Liver safety signal (patients with migraine; Study 201 interim analysis, including near-daily dosing subset): no liver safety signal detected
Liver cases assessed as probably related to study drug (patients with migraine; Study 201 interim analysis, independent liver panel): no liver cases
